Several values for one entry are separate records, joined by “and”; a condition that tells them apart may be missing. Equal entries are not always repeated.
Tested on: U2OS cells
Experiment: Cell growth assay (IncuCyte confluence over 72 h)
Assay type: cell-based
Design: key to U2OS cell growth: % of well area covered by cells (confluence)
Procedure: Cell growth assay: Cell confluence (phase) from RPE1 (hTERT RPE-1, ATCC CLR_4000) or U2OS (ATCC, HTB-96) cell lines were monitored over time with the IncuCyte S3 (Sartiorius, Germany) in 384-well plates in 50 ul DMEM media, supplemented with 10% Fetal Bovine Serum (FBS) 1% penicillin/Streptomycin and incubated 24 h before treatment. Experiment was performed as described in Cano-Franco et al.. […] Cell confluence is represented as % of area covered by cells. Each data point represents the average ratio or confluence obtained from three individual wells of the plate.

## CO[C@@H]1[C@@H](OC(N)=O)[C@@H](O)[C@H](Oc2ccc3c(O)c(NC(=O)c4ccc(O)c(CC=C(C)C)c4)c(=O)oc3c2C)OC1(C)C [compound 12, Novobiocin]
100 nM, time 10 h
  U2OS cell growth: 31.1029 and 33.4179 and 23.7087
100 nM, time 0 h
  U2OS cell growth: 19.136 and 22.8325 and 13.4185
100 nM, time 2 h
  U2OS cell growth: 26.0593 and 27.2796 and 22.6674
100 nM, time 4 h
  U2OS cell growth: 30.3299 and 25.4304 and 21.2335
100 nM, time 6 h
  U2OS cell growth: 27.5347 and 27.1928 and 26.8694
100 nM, time 8 h
  U2OS cell growth: 31.7442 and 25.9761 and 21.578
500 nM, time 0 h
  U2OS cell growth: 26.2226 and 29.6942 and 26.7407
500 nM, time 2 h
  U2OS cell growth: 28.1697 and 29.3576 and 35.4881
500 nM, time 4 h
  U2OS cell growth: 24.6559 and 29.8656 and 34.6982
500 nM, time 6 h
  U2OS cell growth: 27.3788 and 36.5331 and 38.1104
1 uM, time 12 h
  U2OS cell growth: 42.1826
1 uM, time 0 h
  U2OS cell growth: 33.676 and 37.1441 and 40.8786
1 uM, time 2 h
  U2OS cell growth: 36.3349 and 37.5509 and 45.2384
1 uM, time 4 h
  U2OS cell growth: 33.5211 and 30.275 and 38.1541
1 uM, time 6 h
  U2OS cell growth: 37.9722 and 40.3217 and 48.2479
3 uM, time 10 h
  U2OS cell growth: 50.7454 and 57.0193 and 59.2136
3 uM, time 12 h
  U2OS cell growth: 41.453 and 34.0715 and 58.5093
3 uM, time 0 h
  U2OS cell growth: 41.5291 and 47.819 and 45.1855
3 uM, time 2 h
  U2OS cell growth: 44.8462 and 48.6747 and 48.1364
3 uM, time 4 h
  U2OS cell growth: 43.175 and 44.1535 and 45.8798
3 uM, time 6 h
  U2OS cell growth: 48.3538 and 51.3151 and 53.1755
3 uM, time 8 h
  U2OS cell growth: 48.5002 and 53.1189 and 54.8109
5 uM, time 10 h
  U2OS cell growth: 57.6709 and 52.4954 and 56.7999
5 uM, time 0 h
  U2OS cell growth: 41.1202 and 38.7556 and 46.8996
5 uM, time 2 h
  U2OS cell growth: 48.6568 and 43.7565 and 48.1243
5 uM, time 4 h
  U2OS cell growth: 49.6825 and 47.505 and 46.9675
5 uM, time 6 h
  U2OS cell growth: 52.2007 and 50.4885 and 57.3887
5 uM, time 8 h
  U2OS cell growth: 51.5745 and 47.2991 and 53.416
10 uM, time 10 h
  U2OS cell growth: 46.9907 and 34.892 and 44.8825
10 uM, time 0 h
  U2OS cell growth: 34.3842 and 28.0059 and 32.3826
10 uM, time 2 h
  U2OS cell growth: 40.1489 and 30.903 and 35.6928
10 uM, time 4 h
  U2OS cell growth: 42.2655 and 32.6525 and 40.3474
10 uM, time 6 h
  U2OS cell growth: 45.1844 and 33.7835 and 42.5534
10 uM, time 8 h
  U2OS cell growth: 38.9614 and 32.8145 and 39.1419
